# Experimental data reported in patent US6730665B1, “Treatment of bone cancer” (Mayo Foundation for Medical Education and Research, priority 1999, dated 2004).
# Tests used:
# [1] = test system: osteosarcoma cells and immortalized cell lines; test: Cell survival, summary statement; format: cell-based; details: for impact on cell survival (in words): 2 μM, 72 hours; for reduction of cell survival: 20 μM
# Protocol: (§1) MG63 and TE85 human osteosarcoma cells, and ROS 17/2.8 rat osteosarcoma cells were grown in DMEM/F12 phenol-red free medium containing 10% charcoal-stripped fetal bovine serum (FBS) and supplemented with 100 units/ml penicillin, 100 μg/ml streptomycin. Cell were incubated at 37° C. under 5% CO2 in air. Cells were plated at 5×10^4 cells per well into 24 well plates containing 1 ml of medium per well. After allowing the cells to attach overnight, media in the wells were replaced with fresh 1 ml medium. Human fetal osteoblasts (hFOB) cells and hFOB cells overexpressing estrogen receptor-alpha (hFOB-ERα) and estrogen receptor-beta (hFOB-ERβ) were grown in DMEM/F12 medium containing FBS, penicillin, streptomycin and Geneticin (300 μg/mL). The laboratory of Dr. B. L. Riggs at Mayo Clinic provided primary human osteoblast (HOB) cells. HOB cells were basically established from cancellous bone obtained as waste from orthopedic procedures and cultured as explants to generate the osteoblast-like monolayers as described by Borke et al., J. Clin. Endocrinol. Metab., 1988, 67:1299-1304. Human FOB cells and hFOB cells stably transfected with estrogen receptors (ERs) were maintained at 34° C., while all other cells were incubated at 37° C. under 5% CO2 in air.
# (§2) Estrogen metabolites were diluted 1000 fold to give the final required concentrations in each well, and maintained for 72 hrs. The metabolites 2ME, 2OHE, and E2 were purchased from Sigma Chemical Company (St. Louis, Mo.). Stock solutions for each metabolite were made in 95% ethanol. Cell growth was measured by taking the viable cell count. At the end of metabolite treatment, cells were harvested, stained with trypan blue, and counted under a light microscope.
# [2] = test system: MG63 human osteosarcoma cells; test: Cell survival, viable cell count with trypan blue; format: cell-based; details: for cell survival: 20 and 50 μM
# Protocol: as §1, §2
# MG63 cells were treated with 0, 2, and 10 μM concentrations of 2ME in the presence or absence of 100 nM ICI for 72 hours. The cells were harvested and the viable cell counts were taken after staining with trypan blue.
Compound,impact on cell survival (in words) [1],reduction of cell survival [1],"impact on cell survival (in words) ([2]; 2 μM, 72 hrs)",cell survival ([2]; 72 hrs),"impact on cell survival (in words) ([2]; 100 nM ICI alone, 72 hours)"
"C[C@]12CC[C@@H]3c4cc(O)c(O)cc4CC[C@H]3[C@@H]1CC[C@@H]2O [2OHE, 2-hydroxyestradiol]",minimal impact,60%,little impact,about 40%,
"C[C@]12CC[C@@H]3c4ccc(O)cc4CC[C@H]3[C@@H]1CC[C@@H]2O [E2, 17β-estradiol]",minimal impact,50%,little impact,~50%,
C[C@]12CC[C@@H]3c4ccc(O)cc4C[C@@H](CCCCCCCCC[S+]([O-])CCCC(F)(F)C(F)(F)F)[C@H]3[C@@H]1CC[C@@H]2O (stereo partly shown) [ICI],,,,,little impact
COc1cc2c(cc1O)CC[C@@H]1[C@@H]2CC[C@]2(C)C(=O)CC[C@@H]12 [2-methoxyestrone],minimal impact,,,,
